From PubChem BioAssay (NCI)
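At the GI50, growth is halved. At the TGI there is no net growth.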

Legend:
Assay in all cases: growth of human tumour cells (NCI), 384-well format
[1] = test system: 786-0 renal
[2] = test system: A498 renal
[3] = test system: A549 NSCLC
[4] = test system: ACHN renal
[5] = test system: BT-549 breast
[6] = test system: CAKI-1 renal
[7] = test system: CCRF-CEM leukemia
[8] = test system: COLO 205 colon
[9] = test system: DU-145 prostate
[10] = test system: EKVX NSCLC
[11] = test system: HCC-2998 colon
[12] = test system: HCT-116 colon
[13] = test system: HCT-15 colon
[14] = test system: HL-60(TB) leukemia
[15] = test system: HOP-62 NSCLC
[16] = test system: HOP-92 NSCLC
[17] = test system: HS 578T breast
[18] = test system: HT29 colon
[19] = test system: IGROV1 ovarian
[20] = test system: K-562 leukemia
[21] = test system: KM12 colon
[22] = test system: LOX IMVI melanoma
[23] = test system: M14 melanoma
[24] = test system: MALME-3M melanoma
[25] = test system: MCF7 breast
[26] = test system: MDA-MB-231 breast
[27] = test system: MDA-MB-435 melanoma
[28] = test system: MDA-MB-468 breast
[29] = test system: MOLT-4 leukemia
[30] = test system: NCI-H226 lung
[31] = test system: NCI-H23 lung
[32] = test system: NCI-H322M lung
[33] = test system: NCI-H460 NSCLC
[34] = test system: NCI-H522 lung
[35] = test system: NCI/ADR-RES ovarian
[36] = test system: OVCAR-3 ovarian
[37] = test system: OVCAR-4 ovarian
[38] = test system: OVCAR-5 ovarian
[39] = test system: OVCAR-8 ovarian
[40] = test system: PC-3 prostate
[41] = test system: RPMI-8226 leukemia
[42] = test system: RXF 393 renal
[43] = test system: SF-268 CNS
[44] = test system: SF-295 CNS
[45] = test system: SF-539 CNS
[46] = test system: SK-MEL-28 melanoma
[47] = test system: SK-MEL-5 melanoma
[48] = test system: SK-OV-3 ovarian
[49] = test system: SN12C renal
[50] = test system: SNB-19 CNS
[51] = test system: SNB-75 CNS
[52] = test system: SR leukemia
[53] = test system: SW-620 colon
[54] = test system: T-47D breast
[55] = test system: TK-10 renal
[56] = test system: U251 glioblastoma
[57] = test system: UACC-257 melanoma
[58] = test system: UO-31 renal

**Q.** Which results are given for `Cc1ccc(NC(=O)c2cccc(N(C)C)c2)cc1NC(=O)c1ccc(O)cc1`?
**A.** GI50 [1]: 33.5 µM; TGI [1]: > 100 µM; GI50 [2]: 48.2 µM; TGI [2]: > 100 µM; GI50 [3]: 41.5 µM; TGI [3]: > 100 µM; GI50 [4]: 40.2 µM; TGI [4]: > 100 µM; GI50 [5]: 75.2 µM; TGI [5]: > 100 µM; GI50 [6]: 54.6 µM; TGI [6]: > 100 µM; GI50 [7]: 22.5 µM; TGI [7]: 70.7 µM; GI50 [8]: 18.8 µM; TGI [8]: 87.2 µM; GI50 [9]: 47.5 µM; TGI [9]: > 100 µM; GI50 [10]: 45.3 µM; TGI [10]: > 100 µM; GI50 [11]: 16.9 µM; TGI [11]: 36.9 µM; GI50 [12]: 29.6 µM; TGI [12]: > 100 µM; GI50 [13]: 30.4 µM; TGI [13]: > 100 µM; GI50 [14]: 12.5 µM; TGI [14]: 25.2 µM; GI50 [15]: 43.6 µM; TGI [15]: > 100 µM; GI50 [16]: 38.9 µM; TGI [16]: > 100 µM; GI50 [17]: 41.9 µM; TGI [17]: > 100 µM; GI50 [18]: 28.9 µM; TGI [18]: > 100 µM; GI50 [19]: 50.1 µM; TGI [19]: > 100 µM; GI50 [20]: 12 µM; TGI [20]: 25.2 µM; GI50 [21]: 30.6 µM; TGI [21]: > 100 µM; GI50 [22]: 38.5 µM; TGI [22]: > 100 µM; GI50 [23]: 30.5 µM; TGI [23]: > 100 µM; GI50 [24]: 23.5 µM; TGI [24]: 71.5 µM; GI50 [25]: 30.3 µM; TGI [25]: > 100 µM; GI50 [26]: 32.9 µM; TGI [26]: > 100 µM; GI50 [27]: 34.1 µM; TGI [27]: > 100 µM; GI50 [28]: 18.1 µM; TGI [28]: 50.5 µM; GI50 [29]: 16.8 µM; TGI [29]: 34.4 µM; GI50 [30]: 39.6 µM; TGI [30]: > 100 µM; GI50 [31]: 29.3 µM; TGI [31]: > 100 µM; GI50 [32]: 56.7 µM; TGI [32]: > 100 µM; GI50 [33]: 30.6 µM; TGI [33]: > 100 µM; GI50 [34]: 29.4 µM; TGI [34]: > 100 µM; GI50 [35]: 38.9 µM; TGI [35]: > 100 µM; GI50 [36]: 36.9 µM; TGI [36]: > 100 µM; GI50 [37]: 33.8 µM; TGI [37]: > 100 µM; GI50 [38]: 69.8 µM; TGI [38]: > 100 µM; GI50 [39]: 37.3 µM; TGI [39]: > 100 µM; GI50 [40]: 41.6 µM; TGI [40]: > 100 µM; GI50 [41]: 12.7 µM; TGI [41]: 34.1 µM; GI50 [42]: 16.6 µM; TGI [42]: 33.2 µM; GI50 [43]: 48.4 µM; TGI [43]: > 100 µM; GI50 [44]: 25.9 µM; TGI [44]: 81.4 µM; GI50 [45]: 42.8 µM; TGI [45]: > 100 µM; GI50 [46]: 26.3 µM; TGI [46]: 74.1 µM; GI50 [47]: 14.9 µM; TGI [47]: 52.5 µM; GI50 [48]: 43.2 µM; TGI [48]: > 100 µM; GI50 [49]: 57 µM; TGI [49]: > 100 µM; GI50 [50]: 89.8 µM; TGI [50]: > 100 µM; GI50 [51]: 54.4 µM; TGI [51]: > 100 µM; GI50 [52]: 15 µM; TGI [52]: 33.5 µM; GI50 [53]: 59.2 µM; TGI [53]: > 100 µM; GI50 [54]: 15.1 µM; TGI [54]: 33.6 µM; GI50 [55]: 26.8 µM; TGI [55]: 91.2 µM; GI50 [56]: 63.5 µM; TGI [56]: > 100 µM; GI50 [57]: 25.1 µM; TGI [57]: 69.1 µM; GI50 [58]: 30.4 µM; TGI [58]: > 100 µM
